In patent publication US20050009924A1 (priority 2003, published 2005):

How the values were obtained:
rat glioma C6 cells = assay: Cytotoxicity assay (XTT colorimetric), C6 cells; format: cell-based; conditions: 48 h of drug exposure
[1] = MTT relative viability, PhTERT-SEAP (hTERT-BJ1) cells; conditions: human
[2] = tested on: transcriptional activity of hTERT; assay: SEAP reporter assay of hTERT expression, PhTERT-SEAP (hTERT-BJ1); format: cell-based, human
Method: (§1) Secreted alkaine phosphatase was used as the reporter system to monitor the transcriptional activity of hTERT. Here, about […] each were grown in 96-well plates and incubated at 37° C. for 24 h and changed with fresh media. Varying amounts of drugs were added and cells were incubated for another 24 h. Culture media were collected and heated at 65° C. for 10 min to inactivate heat-labile phosphatases. An equal amount of SEAP buffer (2 M diethanolamine, 1 mM MgCl2, and 20 mM […]) was added to the media and p-nitrophenyl phosphate was added to a final concentration of 12 mM. Absorptions at 405 nm were taken, and the rate of absorption increase is determined.
(§2) Culture media were changed every 3 days. […] The stable clones were selected using G418.

human hepatoma G2 cells = assay: Cytotoxicity assay (XTT colorimetric), Hep G2; format: cell-based; conditions: 48 h of drug exposure
[3] = tested on: transcriptional activity of hTERT; assay: SEAP reporter assay of hTERT expression, PhTERT-SEAP (H1299); format: cell-based, human
Method: as §1, §2

[4] = MTT relative viability, PhTERT-SEAP (H1299) cells; conditions: human
[5] = tested on: hepatitis B virus transfected hepatoma cell lines, HepG 2.2.15 cells; assay: Cytotoxicity assay, 2.2.15 cells; format: cell-based, human; conditions: 48 h of drug exposure
[6] = Homo sapiens, hTERT-BJ1, read-out: Relative SEAP activity (%)
[7] = Homo sapiens, NCI-H1299, hTERT-H1299, read-out: Relative SEAP activity (%)
[8] = hTERT-BJ1 cells stably transfected with PhTERT-SEAP reporter

CC(C)CNc1cccc2c1C(=O)c1cccc(NCC(C)C)c1C2=O
IC50 (rat glioma C6 cells; Rattus norvegicus, C6): 12.7 ± 0.37 µM
viability at 48 h, 285 µM [1]: 72 ± 3.3%
viability at 48 h, 2.8 µM ([1]; hTERT-BJ1 cells): 110 ± 7.6%
viability at 48 h, 28 µM ([1]; hTERT-BJ1 cells): 103 ± 3%
activity at 2.8 µM [2, 6]: 22 ± 18.3%
activity at 28 µM [2, 6]: 22 ± 21.4%
activity at 285 µM [2, 6]: 29 ± 3.9%
IC50 (human hepatoma G2 cells; Homo sapiens, HepG2): 14.3 ± 1.54 µM
activity at 2.8 µM [3, 7]: 94 ± 7%
activity at 28 µM [3, 7]: 91 ± 2.5%
activity at 285 µM [3, 7]: 75 ± 4.1%
viability at 48 h, 2.8 µM [4]: 108 ± 4.8%
viability at 48 h, 28 µM [4]: 106 ± 3.7%
viability at 48 h, 285 µM [4]: 80 ± 4.8%
IC50 ([5]; Homo sapiens, HepG2.2.15): > 20 µM

NCCCNc1cccc2c1C(=O)c1cccc(NCCCN)c1C2=O
IC50 (rat glioma C6 cells; Rattus norvegicus, C6): 12.18 ± 0.04 µM
viability at 48 h, 2.8 µM ([1]; hTERT-BJ1 cells): 85 ± 6.9%
viability at 48 h, 28 µM ([1]; hTERT-BJ1 cells): 3 ± 6.9%
activity at 2.8 µM [2, 6]: 103 ± 19.8%
activity at 28 µM [2, 6]: 47 ± 20.5%
activity at 283 µM ([2]; Homo sapiens, 283 μM, hTERT-BJ1, read-out: Relative SEAP activity (%)): 60 ± 15.1%
IC50 (human hepatoma G2 cells; Homo sapiens, HepG2): 11.67 ± 0.09 µM
activity at 2.8 µM [3, 7]: 102 ± 4.9%
activity at 28 µM [3, 7]: 44 ± 7.5%
activity at 283 µM ([3]; Homo sapiens, NCI-H1299, 283 μM, hTERT-H1299, read-out: Relative SEAP activity (%)): 38 ± 6%
viability at 48 h, 2.8 µM [4]: 85 ± 11.5%
viability at 48 h, 28 µM [4]: 32 ± 9.3%
viability at 48 h, 283 µM [4]: 16 ± 2.1%
IC50 ([5]; Homo sapiens, HepG2.2.15): 7.48 µM

COc1cccc2c1C(=O)c1c(O)c3c(c(O)c1C2=O)C[C@@](O)(C(=O)CO)C[C@@H]3O[C@H]1C[C@H](N)[C@H](O)[C@H](C)O1 [Adriamycin, reference compound]
IC50 (rat glioma C6 cells; Rattus norvegicus, C6): 1 µM
IC50 (human hepatoma G2 cells; Homo sapiens, HepG2): 0.9 ± 0.01 µM
IC50 ([5]; Homo sapiens, HepG2.2.15): 1.6 µM

N.N.[Cl][Pt][Cl] [Cisplatin, reference compound]
IC50 (rat glioma C6 cells): > 1 µM
IC50 (human hepatoma G2 cells): 1.48 ± 0.62 µM
IC50 [5]: 2 ± 0.54 µM

CN(C)CCNc1cccc2c1C(=O)c1cccc(NCCN(C)C)c1C2=O [IVd, 1,5-Bis(2-dimethylaminoethylamino)anthraquinone]
IC50 (rat glioma C6 cells; Rattus norvegicus, C6): 0.12 µM
viability at 48 h, 2.6 µM ([1]; hTERT-BJ1 cells): 92 ± 4.8%
viability at 48 h, 26 µM ([1]; hTERT-BJ1 cells): 76 ± 5.9%
viability at 48 h, 262 µM ([1]; hTERT-BJ1 cells): 7 ± 18.2%
activity at 2.6 µM ([2]; Homo sapiens, 2.6 μM, hTERT-BJ1, read-out: Relative SEAP activity (%)): 11 ± 22.4%
activity at 26 µM ([2]; Homo sapiens, 26 μM, hTERT-BJ1, read-out: Relative SEAP activity (%)): -15%
activity at 262 µM ([2]; Homo sapiens, 262 μM, hTERT-BJ1, read-out: Relative SEAP activity (%)): -26%
IC50 (human hepatoma G2 cells; Homo sapiens, HepG2): 0.09 ± 0.01 µM
activity at 2.6 µM ([3]; Homo sapiens, NCI-H1299, 2.6 μM, hTERT-H1299, read-out: Relative SEAP activity (%)): 103 ± 6%
activity at 26 µM ([3]; Homo sapiens, NCI-H1299, 26 μM, hTERT-H1299, read-out: Relative SEAP activity (%)): 54 ± 5.9%
activity at 262 µM ([3]; Homo sapiens, NCI-H1299, 262 μM, hTERT-H1299, read-out: Relative SEAP activity (%)): 40 ± 5.9%
viability at 48 h, 2.6 µM [4]: 107 ± 9.1%
viability at 48 h, 26 µM [4]: 81 ± 8.3%
viability at 48 h, 262 µM [4]: 29 ± 2.6%
IC50 ([5]; Homo sapiens, HepG2.2.15): 0.13 µM

CCCCNc1cccc2c1C(=O)c1cccc(NCCCC)c1C2=O [IVj, 1,5-Bis(butylamino)anthraquinone]
IC50 (rat glioma C6 cells; Rattus norvegicus, C6): > 20 µM
viability at 48 h, 285 µM [1]: 75 ± 5.9%
viability at 48 h, 2.8 µM ([1]; hTERT-BJ1 cells): 109 ± 9.1%
viability at 48 h, 28 µM ([1]; hTERT-BJ1 cells): 99 ± 5.9%
activity at 2.8 µM [2, 6]: 98 ± 27.4%
activity at 28 µM [2, 6]: 103 ± 27%
activity at 285 µM [2, 6]: 123 ± 22.9%
IC50 (human hepatoma G2 cells; Homo sapiens, HepG2): > 20 µM
activity at 2.8 µM [3, 7]: 106 ± 7.1%
activity at 28 µM [3, 7]: 105 ± 5.5%
activity at 285 µM [3, 7]: 98 ± 5.2%
viability at 48 h, 2.8 µM [4]: 102 ± 7%
viability at 48 h, 28 µM [4]: 104 ± 9.2%
viability at 48 h, 285 µM [4]: 81 ± 13.9%
IC50 ([5]; Homo sapiens, HepG2.2.15): > 20 µM

O=C1c2cccc(NC3CCCC3)c2C(=O)c2cccc(NC3CCCC3)c21 [IVo, 1,5-Bis(cyclopentaneamino)-anthraquinone]
IC50 (rat glioma C6 cells): > 20 µM
IC50 (human hepatoma G2 cells): > 20 µM
IC50 [5]: > 20 µM

O=C1c2cccc(Nc3ccc(O)cc3)c2C(=O)c2cccc(Nc3ccc(O)cc3)c21 [IVq, 1,5-Bis(phenolamino)-anthraquinone]
IC50 (rat glioma C6 cells): 14.21 ± 0.08 µM
IC50 (human hepatoma G2 cells): 4.2 ± 0.76 µM
IC50 [5]: > 20 µM

CC(=O)Nc1ccc(NC(C)=O)c2c1C(=O)c1ccccc1C2=O [VI3, 1,4-Bisacetamido-9,10-anthracenedione]
IC50 (rat glioma C6 cells; Rattus norvegicus, C6): > 20 µM
viability at 48 h, 3.1 µM [1, 8]: 117 ± 3%
viability at 48 h, 31 µM [1, 8]: 95 ± 11.9%
viability at 48 h, 310 µM [1, 8]: 49 ± 8.9%
SEAP/vibility ([2]; 3.1 μM, PhTERT-SEAP (hTERT-BJ1)): 0.66
SEAP/vibility ([2]; 31 μM, PhTERT-SEAP (hTERT-BJ1)): 0.87
SEAP/vibility ([2]; 310 μM, PhTERT-SEAP (hTERT-BJ1)): 1.20
activity at 3.1 µM ([2]; Homo sapiens, 3.1 μM, PhTERT-SEAP (hTERT-BJ1), read-out: Relative SEAP activity (%)): 77 ± 12.4%
activity at 31 µM ([2]; Homo sapiens, 31 μM, PhTERT-SEAP (hTERT-BJ1), read-out: Relative SEAP activity (%)): 83 ± 10%
activity at 310 µM ([2]; Homo sapiens, 310 μM, PhTERT-SEAP (hTERT-BJ1), read-out: Relative SEAP activity (%)): 59 ± 15.2%
IC50 (human hepatoma G2 cells; Homo sapiens, HepG2): > 20 µM
SEAP/vibility ([3]; 3.1 μM, PhTERT-SEAP(hTERT-H1299)): 0.78
SEAP/vibility ([3]; 31 μM, PhTERT-SEAP(hTERT-H1299)): 0.83
SEAP/vibility ([3]; 310 μM, PhTERT-SEAP(hTERT-H1299)): 2.16
activity at 3.1 µM ([3]; Homo sapiens, NCI-H1299, 3.1 μM, PhTERT-SEAP(hTERT-H1299), read-out: Relative SEAP activity (%)): 85 ± 2.3%
activity at 31 µM ([3]; Homo sapiens, NCI-H1299, 31 μM, PhTERT-SEAP(hTERT-H1299), read-out: Relative SEAP activity (%)): 90 ± 3.3%
activity at 310 µM ([3]; Homo sapiens, NCI-H1299, 310 μM, PhTERT-SEAP(hTERT-H1299), read-out: Relative SEAP activity (%)): 80 ± 3.1%
viability at 48 h, 3.1 µM [4]: 109 ± 3.5%
viability at 48 h, 31 µM [4]: 108 ± 3.6%
viability at 48 h, 310 µM [4]: 37 ± 1.3%
IC50 ([5]; Homo sapiens, HepG2.2.15): > 20 µM

CCNc1cccc2c1C(=O)c1c(NCC)cccc1C2=O [Va, 1,8-Bis(ethylamine)-anthraquinone]
IC50 (rat glioma C6 cells): > 20 µM
IC50 (human hepatoma G2 cells): > 20 µM
IC50 [5]: > 20 µM

CCCNc1cccc2c1C(=O)c1c(NCCC)cccc1C2=O [Vb, 1,8-Bis(propylamine)-anthraquinone]
IC50 (rat glioma C6 cells): 0.61 ± 0.01 µM
IC50 (human hepatoma G2 cells): 0.19 µM
IC50 [5]: 1.06 µM

CCCCNc1cccc2c1C(=O)c1c(NCCCC)cccc1C2=O [Vc]
IC50 (rat glioma C6 cells): > 20 µM
IC50 (human hepatoma G2 cells): > 20 µM
IC50 [5]: > 20 µM
